In patent US20200069691A1, “HETEROCYCLIC COMPOUNDS AS HIV PROTEASE INHIBITORS” (Merck Sharp & Dohme Corp., priority 2016, published 2020):

target: T1, wild-type HIV-1 protease (Human immunodeficiency virus type 1 group M subtype B, UniProt P04585); assay: Assay for Inhibition of Microbial Expressed HIV Protease (peptide substrate cleavage, LC-MS/MS readout); type: biochemical; details: E. coli expressed wild-type HIV-1 protease, mean of at least two independent experiments, read-out: HIV Pr Enzyme HIV1 PR IC50
T1 construct: Escherichia coli expressed wild-type HIV-1 protease protein
Outline: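 Cleavage of Val-Ser-Gln-Asn-(β-naphthyl)Ala-Pro-Ile-Val (400 μM) by recombinant HIV-1 protease ([…]) ran 1 h at 30 °C after a 30 min room-temperature inhibitor preincubation in 50 mM sodium acetate pH 5.5. Product peak areas by LC-MS/MS gave inhibition; values average at least two independent runs.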

In order of rising IC50:
1. N=C1N[C@](CCCC(F)(F)F)(c2ccc(F)cc2)C(=O)N1Cc1ccc(C(F)(F)F)c(C(=O)N2Cc3cnc(-c4cnn(CCN5CCOCC5)c4)nc3C2)c1 [Compound 33, (5R)-5-(4-fluorophenyl)-2-imino-3-[3-({2-[1-(2-morpholin-4-ylethyl)-1H-pyrazol-4-yl]-5,7-dihydro-6H-pyrrolo[3,4-d]pyrimidin-6-yl}carbonyl)-4-(trifluoromethyl)-benzyl]-5-(4,4,4-trifluorobutyl)-imidazolidin-4-one]  3.26 nM
2. N=C1N[C@](CCCC(F)(F)F)(c2ccc(F)cc2)C(=O)N1Cc1ccc(C(F)(F)F)c(C(=O)N2Cc3cnc(Cl)nc3C2)c1 [Compound 35, (5R)-3-{3-[(2-chloro-5,7-dihydro-6H-pyrrolo[3,4-d]pyrimidin-6-yl)carbonyl]-4-(trifluoromethyl)-benzyl}-5-(4-fluorophenyl)-2-imino-5-(4,4,4-trifluorobutyl)-imidazolidin-4-one]  3.42 nM
3. N=C1N[C@](CCCC(F)(F)F)(c2ccc(F)cc2)C(=O)N1Cc1ccc(C(F)(F)F)c(C(=O)N2Cc3cnc(N[C@@H]4CCOC4)nc3C2)c1 [Compound 36, (5R)-5-(4-fluorophenyl)-2-imino-3-[3-({2-[(3R)-tetrahydrofuran-3-ylamino]-5,7-dihydro-6H-pyrrolo[3,4-d]pyrimidin-6-yl}carbonyl)-4-(trifluoromethyl)-benzyl]-5-(4,4,4-trifluorobutyl)-imidazolidin-4-one]  3.51 nM
4. CS(=O)(=O)Nc1cccc(-c2ncc3c(n2)CN(C(=O)c2cc(CN4C(=N)N[C@](CCCC(F)(F)F)(c5ccc(F)cc5)C4=O)ccc2C(F)(F)F)C3)c1 [Compound 44, N-[3-(6-{[5-{[(4R)-4-(4-fluorophenyl)-2-imino-5-oxo-4-(4,4,4-trifluorobutyl)imidazolidin-1-yl]methyl}-2-(trifluoromethyl)-phenyl]carbonyl}-6,7-dihydro-5H-pyrrolo[3,4-d]pyrimidin-2-yl)phenyl]methanesulfonamide]  4.55 nM
5. CC(C)Cn1cc(-c2ncc3c(n2)CN(C(=O)c2cc(CN4C(=N)N[C@](CCCC(F)(F)F)(c5ccc(F)cc5)C4=O)ccc2C(F)(F)F)C3)cn1 [Compound 46, (5R)-5-(4-fluorophenyl)-2-imino-3-[3-({2-[1-(2-methylpropyl)-1H-pyrazol-4-yl]-5,7-dihydro-6H-pyrrolo[3,4-d]pyrimidin-6-yl}carbonyl)-4-(trifluoromethyl)-benzyl]-5-(4,4,4-trifluorobutyl)-imidazolidin-4-one]  4.82 nM
6. CC(C)CC1(c2ccccc2)NC(=N)N(Cc2ccc(C(F)(F)F)c(C(=O)N3Cc4cncnc4C3)c2)C1=O (stereo not drawn) [Compound 150, 3-[3-(5,7-dihydro-6H-pyrrolo[3,4-d]pyrimidin-6-ylcarbonyl)-4-(trifluoromethyl)benzyl]-2-imino-5-(2-methylpropyl)-5-phenylimidazolidin-4-one]  5.49 nM
7. N#CCc1ccc(-c2ncc3c(n2)CN(C(=O)c2cc(CN4C(=N)N[C@](CCCC(F)(F)F)(c5ccc(F)cc5)C4=O)ccc2C(F)(F)F)C3)cn1 [Compound 61, [5-(6-{[5-{[(4R)-4-(4-fluorophenyl)-2-imino-5-oxo-4-(4,4,4-trifluorobutyl)imidazolidin-1-yl]methyl}-2-(trifluoromethyl)-phenyl]carbonyl}-6,7-dihydro-5H-pyrrolo[3,4-d]pyrimidin-2-yl)pyridin-2-yl]acetonitrile]  6.6 nM
8. N=C1N[C@](CCCC(F)(F)F)(c2ccc(F)cc2)C(=O)N1Cc1ccc(C(F)(F)F)c(C(=O)N2CCN3C(=O)OCC3C2)c1 (stereo partly drawn) [Compound 87, 7-{[5-{[(4R)-4-(4-fluorophenyl)-2-imino-5-oxo-4-(4,4,4-trifluoro-butyl)imidazolidin-1-yl]methyl}-2-(trifluoromethyl)phenyl]carbonyl}hexahydro[1,3] oxazolo[3,4-a]pyrazin-3-one]  14.8 nM
9. CC(C)CCC1(c2ccc(F)cc2)NC(=N)N(Cc2ccc(C(F)(F)F)c(C(=O)N3Cc4nc(-c5ccccc5)oc4C3)c2)C1=O (stereo not drawn) [Compound 158, 5-(4-fluorophenyl)-2-imino-5-(3-methylbutyl)-3-{3-[(2-phenyl-4,6-dihydro-5H-pyrrolo[3,4-d][1,3]oxazol-5-yl)carbonyl]-4-(trifluoromethyl)benzyl} imidazolidin-4-one]  15.8 nM
10. N=C1N[C@](CCCC(F)(F)F)(c2ccc(F)cc2)C(=O)N1Cc1ccc(C(F)(F)F)c(C(=O)N2Cc3cnc(-c4ccccc4)nc3C2)c1 [Compound 94, (5R)-5-(4-fluorophenyl)-2-imino-3-{3-[(2-phenyl-5,7-dihydro-6H-pyrrolo[3,4-d]pyrimidin-6-yl)carbonyl]-4-(trifluoromethyl)-benzyl}-5-(4,4,4-trifluorobutyl)-imidazolidin-4-one]  19.2 nM
11. N=C1NC(c2ccccc2)(c2ccccc2)C(=O)N1Cc1ccc(F)c(C(=O)N2Cc3cccnc3C2)c1 [Compound 386, 3-[3-(5,7-dihydro-6H-pyrrolo[3,4-b]pyridin-6-ylcarbonyl)-4-fluorobenzyl]-2-imino-5,5-diphenylimidazolidin-4-one]  28.2 nM
12. COc1ccc(CN2C(=N)NC(c3ccccc3)(c3ccccc3)C2=O)cc1C(=O)N1Cc2cncnc2C1 [Compound 387, 3-[3-(5,7-dihydro-6H-pyrrolo[3,4-d]pyrimidin-6-ylcarbonyl)-4-methoxybenzyl]-2-imino-5,5-diphenylimidazolidin-4-one]  32.2 nM
13. N=C1NC(c2ccccc2)(c2ccccc2)C(=O)N1Cc1cccc(C(=O)N2CCn3c(nnc3C(F)(F)F)C2)c1 [Compound 291, 2-imino-5,5-diphenyl-3-(3-{[3-(trifluoromethyl)-5,6-dihydro[1,2,4]triazolo[4,3-a]pyrazin-7(8H)-yl]carbonyl}benzyl) imidazolidin-4-one]  37.9 nM
14. CC(C)CC1(c2ccccc2)NC(=N)N(Cc2cccc(C(=O)N3CCN(c4ccccc4Cl)CC3)c2)C1=O (stereo not drawn) [Compound 315, 3-(3-{[4-(2-chlorophenyl)piperazin-1-yl]carbonyl}benzyl)-2-imino-5-(2-methylpropyl)-5-phenylimidazolidin-4-one]  52.3 nM
15. C[C@@H](c1cccc(C(=O)N2Cc3ccccc3C2)c1)N1C(=N)NC(c2ccccc2)(c2ccccc2)C1=O [Compound 331, 3-{(1S)-1-[3-(1,3-dihydro-2H-isoindol-2-ylcarbonyl)phenyl]ethyl}-2-imino-5,5-diphenylimidazolidin-4-one]  67.6 nM
16. CC(C)CC1(c2ccccc2)NC(=N)N(Cc2cccc(C(=O)N3CCC(n4c(=O)[nH]c5nc(F)ccc54)CC3)c2)C1=O (stereo not drawn) [Compound 346, 5-fluoro-1-{1-[(3-{[2-imino-4-(2-methylpropyl)-5-oxo-4-phenylimidazolidin-1-yl]methyl}phenyl)-carbonyl]piperidin-4-yl}-1,3-dihydro-2H-imidazo[4,5-b]pyridin-2-one]  82.5 nM
17. CCc1nnc2n1CCN(C(=O)c1cccc(CN3C(=N)NC(c4ccccc4)(c4ccccc4)C3=O)c1)C2 [Compound 356, 3-{3-[(3-ethyl-5,6-dihydro[1,2,4]triazolo[4,3-a]pyrazin-7(8H)-yl)carbonyl]benzyl}-2-imino-5,5-diphenylimidazolidin-4-one]  91.2 nM
18. CCCC1(c2ccccc2)NC(=N)N(Cc2cccc(C(=O)N3Cc4nccnc4C3)c2)C1=O (stereo not drawn) [Compound 278, 3-[3-(5,7-dihydro-6H-pyrrolo[3,4-b]pyrazin-6-ylcarbonyl)benzyl]-2-imino-5-phenyl-5-propylimidazolidin-4-one]  182 nM
